Reference: patent US10112940B2, “Histone demethylase inhibitors” (Celgene Quanticel Research, Inc., priority 2014, dated 2018)

Tests used:
[1] = test system: KYSE-150 esophageal carcinoma cell line; assay: In vitro cell-based assay: BrdU incorporation cell proliferation ELISA; set-up: species or system human; conditions: Homo sapiens, KYSE-150 cells, 168 hours compound incubation, read-out: Cellular IC50
Method: Cell lines tested include the JMJD2C gene amplified cell line KYSE-150. This is a quantitative ELISA assay measuring DNA incorporation of BrdU during S-phase as a direct readout of cellular proliferation.
Assay Principle: This is a colorimetric immunoassay for the quantification of cell proliferation. Cells treated for 168 hours with test compounds are assayed for their ability to go through S-phase as a measure of their proliferative potential.
Assay Method: The human KYSE-150 (SMAD4 mut, TP53 mut) esophageal carcinoma cell line was seeded at 2,000 cells/well on a 96-well tissue culture treated plate. After an overnight incubation, cells were treated with compound in an 11-point dilution series with final concentrations ranging from 100 μM to 2 nM. Cells were then incubated in the presence of compound for 168 hours. After compound incubation the cells were assayed using a BrdU Cell Proliferation ELISA (Roche). The cells were first incubated with BrdU labeling reagent for 2 hours. After 2 hours, the BrdU incorporated cells were fixed and denatured, probed with an anti-BrdU-Peroxidase antibody for 1.5 hours and washed. Finally, a tetramethylbenzidine peroxidase substrate was added to each well for 15 minutes followed by a H2SO4 stop solution. The plate was read at 450 nm, and the raw optical density data was transferred into XLFit (IDBS) for IC50 calculation using the formula: fit=(D+((Vmax*(x^n))/((x^n)+(Km^n))))
Table 4 provides the cellular IC50 values of various compounds disclosed herein.

[2] = molecular target: JMJD2C (Homo sapiens (Human), UniProt Q9H3R0); assay: JMJD2C in vitro enzyme inhibition assay (TR-FRET); assay type: biochemical; conditions: 0.3 nM JMJD2C, 300 nM H3K9me3-biotin peptide, 2 μM alpha-ketoglutaric acid, 30 minutes
Sequence of JMJD2C (Q9H3R0 2-372): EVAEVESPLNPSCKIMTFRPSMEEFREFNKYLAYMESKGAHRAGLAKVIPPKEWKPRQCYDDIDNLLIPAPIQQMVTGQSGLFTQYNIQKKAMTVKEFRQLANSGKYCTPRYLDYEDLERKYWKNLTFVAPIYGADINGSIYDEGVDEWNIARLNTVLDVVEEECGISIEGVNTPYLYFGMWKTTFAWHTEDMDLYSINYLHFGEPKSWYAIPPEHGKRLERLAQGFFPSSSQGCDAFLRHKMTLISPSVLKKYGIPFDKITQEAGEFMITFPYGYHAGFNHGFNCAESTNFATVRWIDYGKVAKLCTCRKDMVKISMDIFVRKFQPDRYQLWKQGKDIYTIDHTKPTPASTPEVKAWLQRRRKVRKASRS
Method: This assay determines the ability of a test compound to inhibit JMJD2C demethylase activity. Baculovirus expressed JMJD2C (GenBank Accession #BC143571, AA 2-372) was purchased from BPS Bioscience (Cat#50105).
The ability of test compounds to inhibit the activity of JMJD2C was determined in 384-well plate format under the following reaction conditions: 0.3 nM JMJD2C, 300 nM H3K9me3-biotin labeled peptide (Anaspec cat #64360), 2 μM alpha-ketoglutaric acid in assay buffer of 50 mM HEPES, pH7.3, 0.005% Brij35, 0.5 mM TCEP, 0.2 mg/ml BSA, 50 μM sodium L-ascorbate, and 2 μM ammonium iron(II) sulfate. Reaction product was determined quantitatively by TR-FRET after the addition of detection reagent Phycolink Streptavidin-allophycocyanin (Prozyme) and Europium-anti-di-methylated histone H3 lysine 9 (H3K9me2) antibody (PerkinElmer) in the presence of 5 mM EDTA in LANCE detection buffer (PerkinElmer) at a final concentration of 50 nM and 1 nM, respectively.
The assay reaction was initiated by the following: 2 μl of the mixture of 900 nM H3K9me3-biotin labeled peptide and 6 μM alpha-ketoglutaric acid with 2 μl of 11-point serial diluted inhibitor in 3% DMSO were added to each well of the plate, followed by the addition of 2 μl of 0.9 nM JMJD2C to initiate the reaction. The reaction mixture was incubated at room temperature for 30 minutes, and terminated by the addition of 6 μl of 5 mM EDTA in LANCE detection buffer containing 100 nM Phycolink Streptavidin-allophycocyanin and 2 nM Europium-anti-H3K9me2 antibody. Plates were read by EnVisionMultilabel Reader in TR-FRET mode (excitation at 320 nm, emission at 615 nm and 665 nm) after 1 hour incubation at room temperature. A ratio was calculated (665/615) for each well and fitted to determine inhibition constant (IC50).
The ability of the compounds disclosed herein to inhibit demethylase activity was quantified and the respective IC50 value was determined. Table 3 provides the IC50 values of various compounds disclosed herein.

SMILES	IC50 [1] [µM]	IC50 [2] [µM]
Oc1nc(Oc2ccc(N3CCOC(c4ccccc4)C3)cc2)nc2cnccc12 (stereo not drawn) [Example 26, 2-[4-(2-phenyl-morpholin-4-yl)-phenoxy]-pyrido[3,4-d]pyrimidin-4-ol]	> 10	0.1 to 1
CN(c1ccc(Oc2nc(O)c3ccncc3n2)cc1)c1cncc(N2CCOCC2)c1 [Example 27, 2-{4-[methyl-(5-morpholin-4-yl-pyridin-3-yl)-amino]-phenoxy}-pyrido[3,4-d]pyrimidin-4-ol]	> 10	0.1 to 1
Oc1nc(Oc2ccc3c(c2)CCN3c2ccccc2)nc2cnccc12 [Example 32, 2-(1-phenyl-2,3-dihydro-1H-indol-5-yloxy)-pyrido[3,4-d]pyrimidin-4-ol]	1 to 10	0.1 to 1
CN(c1ccc(Oc2nc(O)c3ccncc3n2)cc1)c1cccc(C#N)c1 [Example 40, 3-{[4-(4-hydroxy-pyrido[3,4-d]pyrimidin-2-yloxy)-phenyl]-methyl-amino}-benzonitrile]	> 10	0.1 to 1
CN1CCN(Cc2cccc(N(C)c3ccc(Oc4nc(O)c5ccncc5n4)cc3)c2)CC1 [Example 41, 2-(4-{methyl-[3-(4-methyl-piperazin-1-ylmethyl)-phenyl]-amino}-phenoxy)-pyrido[3,4-d]pyrimidin-4-ol]	1 to 10	≤ 0.1
CN(c1ccc(Oc2nc(O)c3ccncc3n2)cc1)c1ccc(C2CC2)cc1 [Example 42, 2-{4-[(4-cyclopropyl-phenyl)-methyl-amino]-phenoxy}-pyrido[3,4-d]pyrimidin-4-ol]	0.1 to 1	0.1 to 1
Cc1ccc(N(C)c2ccc(Oc3nc(O)c4ccncc4n3)cc2)nc1 [Example 43, 2-[4-[methyl-(5-methylpyridin-2-yl)amino]phenoxy]pyrido[3,4-d]pyrimidin-4-ol]	0.1 to 1	0.1 to 1
CN1CCN(c2cccc(N(C)c3ccc(Oc4nc(O)c5ccncc5n4)cc3)c2)CC1=O [Example 45, 4-[3-[4-(4-hydroxypyrido[3,4-d]pyrimidin-2-yl)oxy-N-methylanilino]phenyl]-1-methylpiperazin-2-one]	> 10	0.1 to 1
CN1CCN(c2ccc(N(C)c3ccc(Oc4nc(O)c5ccncc5n4)cc3)cc2)CC1 [Example 46, 2-[4-[N-methyl-4-(4-methylpiperazin-1-yl)anilino]phenoxy]pyrido[3,4-d]pyrimidin-4-ol]	> 10	0.1 to 1
CN(C)c1cccc(N(C)c2ccc(Oc3nc(O)c4ccncc4n3)cc2)c1 [Example 47, 2-[4-[3-(dimethylamino)-N-methylanilino]phenoxy]pyrido[3,4-d]pyrimidin-4-ol]	0.1 to 1	0.1 to 1
CN(c1ccc(Oc2nc(O)c3ccncc3n2)cc1)c1cccc(N2CCCC2)c1 [Example 48, 2-[4-(N-methyl-3-pyrrolidin-1-ylanilino)phenoxy]pyrido[3,4-d]pyrimidin-4-ol]	> 10	0.1 to 1
CN(c1ccc(Oc2nc(O)c3ccncc3n2)cc1)c1ccc(N2CCCC2)cc1 [Example 49, 2-[4-(N-methyl-4-pyrrolidin-1-ylanilino)phenoxy]pyrido[3,4-d]pyrimidin-4-ol]	0.1 to 1	1 to 10
CN(c1ccc(Oc2nc(O)c3ccncc3n2)cc1)c1cccc(N2CCC(N)CC2)c1 [Example 50, 2-[4-[3-(4-aminopiperidin-1-yl)-N-methylanilino]phenoxy]pyrido[3,4-d]pyrimidin-4-ol]	> 10	≤ 0.1
C[C@@H](c1ccccc1)N(C)c1ccc(Oc2nc(O)c3ccncc3n2)cc1 [Example 51, 2-[4-[methyl-[(1S)-1-phenylethyl]amino]phenoxy]pyrido[3,4-d]pyrimidin-4-ol]	1 to 10	0.1 to 1
C[C@H](c1ccccc1)N(C)c1ccc(Oc2nc(O)c3ccncc3n2)cc1 [Example 52, 2-[4-[methyl-[(1R)-1-phenylethyl]amino]phenoxy]pyrido[3,4-d]pyrimidin-4-ol]	1 to 10	0.1 to 1
Cc1ccc(N(C)c2ccc(Oc3nc(O)c4ccncc4n3)cc2)cc1F [Example 53, 2-[4-(3-fluoro-N,4-dimethylanilino)phenoxy]pyrido[3,4-d]pyrimidin-4-ol]	0.1 to 1	0.1 to 1
Oc1nc(Oc2ccc(N3CCC(c4ccccc4)C3)cc2)nc2cnccc12 (stereo not drawn) [Example 54, 2-[4-(3-phenylpyrrolidin-1-yl)phenoxy]pyrido[3,4-d]pyrimidin-4-ol]	> 10	1 to 10
Cc1ccc(N(C)c2ccc(Oc3nc(O)c4ccncc4n3)cc2)cc1N1CCOCC1 [Example 55, 2-[4-(N,4-dimethyl-3-morpholin-4-ylanilino)phenoxy]pyrido[3,4-d]pyrimidin-4-ol]	1 to 10	0.1 to 1
CN(c1ccc(Oc2nc(O)c3ccncc3n2)cc1)c1cccc(S(C)(=O)=O)c1 [Example 56, 2-[4-(N-methyl-3-methylsulfonylanilino)phenoxy]pyrido[3,4-d]pyrimidin-4-ol]	> 10	0.1 to 1

More lines, now with the values ahead:

IC50 [1] [µM]	IC50 [2] [µM]	SMILES
0.1 to 1	0.1 to 1	COCC(C)c1ccc(N(C)c2ccc(Oc3nc(O)c4ccncc4n3)cc2)cc1 (stereo not drawn) [Example 29, 2-(4-{[4-(2-methoxy-1-methyl-ethyl)-phenyl]-methyl-amino}-phenoxy)-pyrido[3,4-d]pyrimidin-4-ol]
≤ 0.1	0.1 to 1	CC(CC#N)c1ccc(N(C)c2ccc(Oc3nc(O)c4ccncc4n3)cc2)cc1 (stereo not drawn) [Example 30, 3-(4-{[4-(4-hydroxy-pyrido[3,4-d]pyrimidin-2-yloxy)-phenyl]-methyl-amino}-phenyl)-butyronitrile]
0.1 to 1	0.1 to 1	COC(C)c1ccc(N(C)c2ccc(Oc3nc(O)c4ccncc4n3)cc2)cc1 (stereo not drawn) [Example 36, 2-(4-{[4-(1-methoxy-ethyl)-phenyl]-methyl-amino}-phenoxy)-pyrido[3,4-d]pyrimidin-4-ol]
> 10	≤ 0.1	CC(CN)c1ccc(N(C)c2ccc(Oc3nc(O)c4ccncc4n3)cc2)cc1 (stereo not drawn) [Example 37, 2-(4-{[4-(2-amino-1-methyl-ethyl)-phenyl]-methyl-amino}-phenoxy)-pyrido[3,4-d]pyrimidin-4-ol]
≤ 0.1	0.1 to 1	COCCN(C)CC(C)c1ccc(N(C)c2ccc(Oc3nc(O)c4ccncc4n3)cc2)cc1 (stereo not drawn) [Example 38, 2-{4-[(4-{2-[(2-methoxy-ethyl)-methyl-amino]-1-methyl-ethyl}-phenyl)-methyl-amino]-phenoxy}-pyrido[3,4-d]pyrimidin-4-ol]
≤ 0.1	1 to 10	CC(c1ccc(N(C)c2ccc(Oc3nc(O)c4ccncc4n3)cc2)cc1)C1CC1 (stereo not drawn) [Example 39, 2-(4-{[4-(1-cyclopropyl-ethyl)-phenyl]-methyl-amino}-phenoxy)-pyrido[3,4-d]pyrimidin-4-ol]
> 10	≤ 0.1	CN(C)c1ccc(N(C)c2ccc(Oc3nc(O)c4ccncc4n3)cc2)cc1 [Example 44, 2-[4-[4-(dimethylamino)-N-methylanilino]phenoxy]pyrido[3,4-d]pyrimidin-4-ol]
> 10	0.1 to 1	CN(c1ccc(Oc2nc(O)c3ccncc3n2)cc1)c1ccc(S(C)(=O)=O)cc1 [Example 57, 2-[4-(N-methyl-4-methylsulfonylanilino)phenoxy]pyrido[3,4-d]pyrimidin-4-ol]
